Measurements reported in ChEMBL document CHEMBL3507680, “University of Dundee, Gates Library screen for HepG2 cell viability”.

Experiment: Human HepG2 cell viability assay in 384 well format
Format: toxicity, cell-based
Parameters: dose 125 nL, time 70.5 hour; cytotoxicity at 70.5 h: concentration not given beside the values
Conditions: HepG2 cells, read-out: Inhibition

| SMILES | cytotoxicity at 70.5 h [%] |
| --- | --- |
| Cn1c2ccccc2c2ncn(CCN3CCOCC3)c(=O)c21 | 11.8 |
| CCOn1c(SC(C)C)nc2ccccc2c1=O | -8.12 |
| CC(C)c1nnc(NC(=O)CCC(=O)NCC2CCCO2)s1 (stereo not drawn) | -12.5 |
| CCSc1nc2ccccc2c(=O)n1OCC(=O)OC | -8.5 |
| O=C(CN1CCOCC1)Nc1ncc(Br)cc1Br | -5.32 |
| COCCCN(Cc1ccccn1)S(=O)(=O)Cc1ccccc1 | -18.4 |
| COc1ccc2c(c1)[nH]c1c(N(C)CC3OCCO3)ncnc12 | 7.79 |
| CCSc1nnc(CCNC(=O)OC(C)(C)C)o1 | 13 |
| COc1cccc(-c2nc(CC(=O)NC3(C)CCS(=O)(=O)C3)cs2)c1 (stereo not drawn) | -8.05 |
| O=C(O)CCNC(=O)N1CCc2c([nH]c3ccc(Cl)cc23)C1 | -6.59 |
| CCOC(=O)COc1nc(CC(C)C)c2c(c1C#N)CCC2 | 1.02 |
| C[C@@H](CO)NC(=O)c1ccc2nc(NS(C)(=O)=O)sc2c1 | -2.43 |
| COc1ccc(-c2nc(C#N)c(N(C)C)o2)cc1S(=O)(=O)N1CCCC1 | 14.1 |
| Cc1ccc(NC(=O)CC2NC(N3CCc4ccccc43)=NC2=O)cc1 (stereo not drawn) | -7.26 |
| O=C(c1ccccc1)N(CC1CC1)c1cccnc1 | -1.58 |
| O=C(c1nc(Cc2c[nH]c3ccccc23)no1)N1CCOCC1 | -3.8 |
| O=C(C1CC=CC1)N1CC[C@@H]2O[C@@H](COCC3CCOCC3)CC[C@@H]21 | 6.54 |
| O=C([C@H]1CCS(=O)(=O)[C@@H]2CN(Cc3ccc(F)cc3)C[C@H]12)N1CCCC1 | -4.67 |
| O=C(C1CC=CC1)N1CC[C@@H]2O[C@H](COCC3CCOCC3)CC[C@@H]21 | -6.77 |
| CC(=O)N1CC(c2ncn(C(C)C)n2)c2cc(C(=O)NC3CC3)ccc21 (stereo not drawn) | 14.1 |
| COc1cccc(N2CC3(CCN(c4cnccn4)C3)CC2=O)c1 (stereo not drawn) | 13.8 |
| Cn1c2c(c(=O)n1C)CN(C(=O)c1ccco1)CCC2 | 12.8 |

| SMILES | cytotoxicity at 70.5 h [%] |
| --- | --- |
| COCCN1CCCC12CCCN(c1ncccn1)C2 (stereo not drawn) | -2.34 |
| Cn1c2c(c(=O)n1C)CN(C(=O)c1ccsc1)CCC2 | -0.418 |
| O=C(c1cscn1)N1CCC2(CC1)CCN(S(=O)(=O)c1ccccc1)C2 | -8.17 |
| CC(=O)N1CC(c2ncn(C(C)C)n2)c2cc(C(=O)NC(C)C)ccc21 (stereo not drawn) | -4.9 |
| O=C(c1cscn1)N1CCC2(CCN(S(=O)(=O)c3ccccc3)C2)C1 (stereo not drawn) | -17.7 |
| COCCN1CCCC12CCCN(c1nncs1)C2 (stereo not drawn) | -8.64 |
| FC1(F)CCN(c2ccccc2)CC12CCN(c1ncccn1)C2 (stereo not drawn) | -1.34 |
| CCc1ncnc2c1CCN(c1ncc(F)cn1)CC2 | -7.64 |
| O=C(Cc1ccsc1)N1CCc2ccc(=O)n(CC3CC3)c2CC1 | -3.62 |
| Cn1nc(CN2CCOCC2)c2c1CN(C(=O)c1ccc[nH]1)C2 | 0.563 |
| CCS(=O)(=O)N1CCn2c(COCC3CCOCC3)cnc2C1C (stereo not drawn) | -5.13 |
| CCOCc1cncc2c1CCN(S(=O)(=O)c1ccccc1)C2 | -3.1 |
| CCCS(=O)(=O)N1C[C@@H]2COC[C@@H](Cc3nc(C)no3)[C@@H]2C1 | -1.7 |
| O=C(c1ccc[nH]1)N1CC2(CCN(c3ncccn3)C2)C1 | 1.3 |
| CC(C)CC(=O)N1CCN(C(=O)NC(C)C)CC2(CC(=O)N(C)C2)C1 (stereo not drawn) | -18.5 |
| O=C(C1CCOCC1)N1CCO[C@@H]2[C@@H](OCc3ccncc3)CC[C@@H]21 | -22.7 |
| CCS(=O)(=O)N1CCC2(CC1)CN(c1cncnc1)C(=O)CO2 | -15.9 |
| Cc1cccc(C(=O)N2CC[C@H]3C[C@@H](C)O[C@@H]3C2)n1 | -19.7 |
| O=C(C1CCOCC1)N1CCO[C@H]2[C@H](OCC3CC3)CC[C@@H]21 | 2.42 |
| COCC(=O)N1CCN(C(=O)NC(C)C)CC2(CC(=O)N(C)C2)C1 (stereo not drawn) | 9.18 |
| Cc1noc([C@H]2CC[C@@H]3[C@@H](CCN3S(=O)(=O)C3CC3)O2)n1 | -3.57 |
| COCC1COCCC12CCN(C(=O)CC1Cc3ccccc3C1)CC2 (stereo not drawn) | 0.913 |

| SMILES | cytotoxicity at 70.5 h [%] |
| --- | --- |
| COCC1CN(C(=O)Cc2cccs2)Cc2nnn(CC3CC3)c21 (stereo not drawn) | 2.3 |
| Cc1oncc1C(=O)N1CC[C@H]2[C@H]1CCN2Cc1ccccn1 | -3.13 |
| COCC1COCCC12CCN(C(=O)Cc1ccc(F)cc1)CC2 (stereo not drawn) | -16.1 |
| O=C(c1cccs1)N1CCN(CC2CC2)c2ncccc2C1 | -21 |
| Cc1noc([C@H]2COC[C@H]3CN(C(=O)Cc4ccsc4)C[C@H]32)n1 | -20.1 |
| CCSc1nnc([C@@H](N)CC(C)C)o1 | -7.55 |
| Cc1cccc(CS(=O)(=O)c2nnc([C@@H](N)Cc3ccccc3)o2)c1 | 12.4 |
| CCOC(=O)CSc1nnc([C@@H](N)C(C)CC)o1 (stereo partly drawn) | -9.94 |
| CCOC(=O)CSc1nnc([C@@H](N)C(C)C)o1 | -7.09 |
| CCOC(=O)CSc1nnc([C@@H](N)CC(C)C)o1 | -6.75 |
| CN1CCC2(CC1)C(=O)N(c1cccnc1)c1ccc(F)cc12 | -0.57 |
| Cc1ccc(C(CCNCCCN(C)C)C2CCOC(C)(C)C2)cc1 (stereo not drawn) | 30.6 |
| Cc1cnc(N2CCCC3(CCCN3CC(=O)N(C)C)C2)nc1 (stereo not drawn) | 12.8 |
| O=C(NC1CCC1)[C@H]1CCS(=O)(=O)[C@@H]2CN(CCc3ccccc3)C[C@H]12 | 0.419 |
| CN(C)C(=O)CN1CCCC12CCCN(c1ncc(F)cn1)C2 (stereo not drawn) | -4.71 |
| Cc1noc(C)c1CN1CCc2ncc(Cn3cccn3)n2CC1 | -5.78 |
| Cn1cc(C(=O)N2CC[C@@H]3[C@@H]2CCN3c2ncc(F)cn2)cn1 | -5.7 |
| CN1CCN(c2ccc3ccc(C(=O)N4CCCCO4)cn23)CC1 | -6.94 |
| COCCN1CCC2(CC1)CC1(CCN(S(C)(=O)=O)CC1)N(C)C2=O | -7.2 |
| CCCS(=O)(=O)N1C[C@@H]2COC[C@]2(CN2CCOCC2)C1 | -10.5 |
| CCc1ccc2c(C3CN(CC4CCC4)C3)ncn2c1 | -6.64 |
| O=C(c1cocn1)N1C[C@@H]2CN(Cc3ccco3)CCO[C@@H]2C1 | -9.1 |

| SMILES | cytotoxicity at 70.5 h [%] |
| --- | --- |
| O=C(c1cc[nH]n1)N1CCC(F)(F)C2(CCN(c3ccccn3)C2)C1 (stereo not drawn) | 11 |
| COCCN1C[C@@H]2CN(c3cc(OC)ncn3)CCC[C@]2(C(=O)O)C1 | 9.96 |
| O=C(c1c[nH]cn1)N1CCC(F)(F)C2(CCN(c3cnccn3)C2)C1 (stereo not drawn) | 0.139 |
| O=C(NC1CC1)N1Cc2[nH]nc(COc3cccnc3)c2C1 | -6.87 |
| COCCCN1CCCC12CCN(c1ncccn1)CC2 | -5.24 |
| O=C(c1cnccn1)N1CCC(F)(F)C2(CCN(c3ccccn3)C2)C1 (stereo not drawn) | -8.49 |
| CN(C)C(=O)CN1C[C@H]2CCN(Cc3ccccc3)CC[C@H]2S1(=O)=O | -8.74 |
| CC1c2ncc(COCC3CC3)n2CCN1C (stereo not drawn) | -4.63 |
| Cc1cnc(N2CCc3c(cnc(C)c3C(=O)O)C2)nc1 | -2.57 |
| Cc1cnc(N2CCc3ncnc(N4CCN(C)CC4)c3CC2)nc1 | -2.07 |
| CCn1cc2c(n1)CN(S(=O)(=O)c1cn(C)cn1)CC2COC (stereo not drawn) | -3.24 |
| CC(C)N1CCn2c(COCC3CCOCC3)cnc2C1C (stereo not drawn) | -1.85 |
| O=S(=O)(C1CC1)N1CCc2ncnc(-c3ccncc3)c2CC1 | -0.987 |
| Cn1ccnc1CN1CCC2(CCCN2c2ncccn2)CC1 | -0.454 |
| CN(C)Cc1nn(C)c2c1CN(C(=O)c1ccc[nH]1)C2 | -0.767 |
| FC(F)(F)c1ccnc(N2C[C@H]3CCN(c4cccnc4)C[C@H]3C2)n1 | -17.5 |
| CCN1CC2(CC1=O)CN(Cc1ccsc1)CCN(C(=O)C(C)C)C2 (stereo not drawn) | -15.8 |
| CCOCC1CN(CC2CC2)Cc2nn(CC3CC3)cc21 (stereo not drawn) | 6.53 |
| CN(C)C(=O)C1OC2(CCNCC2)c2ccccc21 (stereo not drawn) | -6.23 |
| O=C(NC[C@]12COC[C@H]1CN(Cc1nccs1)C2)c1ccsc1 | -3.53 |
| COC1COC2(CCN(Cc3ccc(Cl)cc3)CC2)C1 (stereo not drawn) | 6.16 |
| COCCN1CCC(c2nc3ccc(NC(C)C)cn3n2)CC1 | -17.4 |

| SMILES | cytotoxicity at 70.5 h [%] |
| --- | --- |
| O=C(NCc1cccs1)[C@@H]1CC[C@@H]2[C@@H](CCN2c2ncccn2)O1 | -19.1 |
| COC1COC2(CCN(Cc3cccc(Cl)c3)CC2)C1 (stereo not drawn) | -9.84 |
| COC1COC2(CCN(Cc3cccc(C#N)c3)CC2)C1 (stereo not drawn) | -10.7 |
| c1cnc(N2CC[C@@H](N3CCOCC3)[C@@H]2Cc2ccncc2)nc1 | 11.8 |
| Fc1cnc(N2CC[C@@H](N3CCOCC3)[C@@H]2Cc2cccnc2)nc1 | 9.63 |
| Cc1cnc(N2CC[C@@H](N3CCOCC3)[C@@H]2Cc2ccncc2)nc1 | -1.98 |
| CCN(CC)Cc1cnc2n1CCN(Cc1c(C)noc1C)CC2 | 5.41 |
| O=C(O)c1cc2c(nc1-c1cncnc1)CCN(C1CCOC1)CC2 (stereo not drawn) | 11.3 |
| Cc1ccc2c(n1)N(Cc1csc(C)n1)CCN(C1CCOC1)C2 (stereo not drawn) | -5.88 |
| O=C(c1c[nH]cn1)N1CCC(F)(F)C2(CCN(c3ccccn3)C2)C1 (stereo not drawn) | -4.42 |
| FC1(F)CCNCC12CCN(c1cccnc1)C2 (stereo not drawn) | 13.7 |
| CC1c2ncc(COCC3CCOCC3)n2CCN1Cc1cccnc1 (stereo not drawn) | -4.06 |
| COCCN(C)C[C@@H]1CCC[C@@H]2CN(Cc3ccc(OC)nc3)C[C@@H]21 | 0.0071 |
| Cn1cc(CN2CCc3c(cnc(-c4ccccc4)c3C(=O)O)C2)cn1 | -5.39 |
| CCn1ncc2c1C(COCC1CC1)N(Cc1c(C)noc1C)CC2 (stereo not drawn) | 0.596 |
| Cc1noc(C)c1CN1CCO[C@H]2[C@H](Oc3ncccc3F)CC[C@@H]21 | -9.05 |
| Cc1noc(C)c1CN1CCn2c(CN3CCN(C)CC3)cnc2C1 | -14.6 |
| CO[C@H]1CCN(C2CCC2)[C@@H]2CN(Cc3ccncc3)C[C@H]12 | -0.868 |
| CN1CCn2c(-c3cccc(F)c3)cnc2C12CCN(CC1CC1)CC2 | 4.4 |
| Cn1cc(CN2C[C@H](Oc3ncccc3F)[C@H]3OCCC[C@H]32)cn1 | -10.3 |
